Data taken from the supplement of paper PMC10307832.

Key:
Test in all cases: relative viability (nuclei count vs DMSO), 5 days (fraction); higher = more cells survive
Ruxolitinib + Bortezomib = compound: N#CC[C@H](C1CCCC1)n1cc(-c2ncnc3[nH]ccc23)cn1 [Ruxolitinib] + CC(C)C[C@H](NC(=O)[C@H](Cc1ccccc1)NC(=O)c1cnccn1)B(O)O [Bortezomib] (partner 0.002 µM)
Procedure, shortened: (§1)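 Lung cancer cell lines in 1536-well plates were dosed by pin tool the day after seeding, either with one drug alone or with a fixed anchor-drug dose plus five library-drug doses (not always all listed) in √10 steps. After 5 days, cells were fixed and their nuclei stained in one step (final 0.05% Triton X-100, 1% formaldehyde, 1 ug/ml Hoechst), then counted on 4× images. Relative viability is the nuclei count in treated wells divided by that in vehicle wells. Values are medians of duplicate plates.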

VE-821 + Decitabine = compound: CS(=O)(=O)c1ccc(-c2cnc(N)c(C(=O)Nc3ccccc3)n2)cc1 [VE-821] + Nc1ncn([C@H]2C[C@H](O)[C@@H](CO)O2)c(=O)n1 [Decitabine] (partner 2 µM)
Procedure, shortened: as §1

VE-821 + Crizotinib = compound: CS(=O)(=O)c1ccc(-c2cnc(N)c(C(=O)Nc3ccccc3)n2)cc1 [VE-821] + C[C@@H](Oc1cc(-c2cnn(C3CCNCC3)c2)cnc1N)c1c(Cl)ccc(F)c1Cl [Crizotinib] (partner 1 µM)
Procedure, shortened: as §1

VE-821 + Linsitinib = compound: CS(=O)(=O)c1ccc(-c2cnc(N)c(C(=O)Nc3ccccc3)n2)cc1 [VE-821] + C[C@]1(O)C[C@@H](c2nc(-c3ccc4ccc(-c5ccccc5)nc4c3)c3c(N)nccn32)C1 [Linsitinib] (partner 1 µM)
Procedure, shortened: as §1

## 201T
Ruxolitinib + Bortezomib; first compound 0.08 µM
  relative viability: 1.14
Ruxolitinib + Bortezomib; first compound 0.253 µM
  relative viability: 1.26
Ruxolitinib + Bortezomib; first compound 0.8 µM
  relative viability: 1.21
Ruxolitinib + Bortezomib; first compound 2.53 µM
  relative viability: 1.34
Ruxolitinib + Bortezomib; first compound 8 µM
  relative viability: 1.3
VE-821 + Decitabine; first compound 0.08 µM
  relative viability: 0.887
VE-821 + Decitabine; first compound 0.253 µM
  relative viability: 0.878
VE-821 + Decitabine; first compound 0.8 µM
  relative viability: 0.887
VE-821 + Decitabine; first compound 2.53 µM
  relative viability: 0.918
VE-821 + Decitabine; first compound 8 µM
  relative viability: 0.659
VE-821 + Crizotinib; first compound 0.08 µM
  relative viability: 1.04
VE-821 + Crizotinib; first compound 0.253 µM
  relative viability: 1.03
VE-821 + Crizotinib; first compound 0.8 µM
  relative viability: 1.02
VE-821 + Crizotinib; first compound 2.53 µM
  relative viability: 1.08
VE-821 + Crizotinib; first compound 8 µM
  relative viability: 0.979
VE-821 + Linsitinib; first compound 0.08 µM
  relative viability: 0.975
VE-821 + Linsitinib; first compound 0.253 µM
  relative viability: 0.941
VE-821 + Linsitinib; first compound 0.8 µM
  relative viability: 0.956
VE-821 + Linsitinib; first compound 2.53 µM
  relative viability: 0.968
VE-821 + Linsitinib; first compound 8 µM
  relative viability: 0.818

## A549
VE-821 + Decitabine; first compound 0.08 µM
  relative viability: 0.319
VE-821 + Decitabine; first compound 0.253 µM
  relative viability: 0.454
VE-821 + Decitabine; first compound 0.8 µM
  relative viability: 0.221
VE-821 + Decitabine; first compound 2.53 µM
  relative viability: 0.318
VE-821 + Decitabine; first compound 8 µM
  relative viability: 0.281
VE-821 + Crizotinib; first compound 0.08 µM
  relative viability: 0.896
VE-821 + Crizotinib; first compound 0.253 µM
  relative viability: 0.656
VE-821 + Crizotinib; first compound 0.8 µM
  relative viability: 0.607
VE-821 + Crizotinib; first compound 2.53 µM
  relative viability: 0.689
VE-821 + Crizotinib; first compound 8 µM
  relative viability: 0.271
VE-821 + Linsitinib; first compound 0.08 µM
  relative viability: 0.623
VE-821 + Linsitinib; first compound 0.253 µM
  relative viability: 0.597
VE-821 + Linsitinib; first compound 0.8 µM
  relative viability: 0.43
VE-821 + Linsitinib; first compound 2.53 µM
  relative viability: 0.599
VE-821 + Linsitinib; first compound 8 µM
  relative viability: 0.406

## A-427
Ruxolitinib + Bortezomib; first compound 0.08 µM
  relative viability: 0.983
Ruxolitinib + Bortezomib; first compound 0.253 µM
  relative viability: 0.955
Ruxolitinib + Bortezomib; first compound 0.8 µM
  relative viability: 0.985
Ruxolitinib + Bortezomib; first compound 2.53 µM
  relative viability: 1.06
Ruxolitinib + Bortezomib; first compound 8 µM
  relative viability: 0.782
VE-821 + Decitabine; first compound 0.08 µM
  relative viability: 0.592
VE-821 + Decitabine; first compound 0.253 µM
  relative viability: 0.53
VE-821 + Decitabine; first compound 0.8 µM
  relative viability: 0.587
VE-821 + Decitabine; first compound 2.53 µM
  relative viability: 0.572
VE-821 + Decitabine; first compound 8 µM
  relative viability: 0.442
VE-821 + Crizotinib; first compound 0.08 µM
  relative viability: 0.907
VE-821 + Crizotinib; first compound 0.253 µM
  relative viability: 0.821
VE-821 + Crizotinib; first compound 0.8 µM
  relative viability: 0.785
VE-821 + Crizotinib; first compound 2.53 µM
  relative viability: 0.811
VE-821 + Crizotinib; first compound 8 µM
  relative viability: 0.384
VE-821 + Linsitinib; first compound 0.08 µM
  relative viability: 1.18
VE-821 + Linsitinib; first compound 0.253 µM
  relative viability: 1.12
VE-821 + Linsitinib; first compound 0.8 µM
  relative viability: 1.06
VE-821 + Linsitinib; first compound 2.53 µM
  relative viability: 1.08
VE-821 + Linsitinib; first compound 8 µM
  relative viability: 0.894

## ABC-1
Ruxolitinib + Bortezomib; first compound 0.08 µM
  relative viability: 0.324
Ruxolitinib + Bortezomib; first compound 0.253 µM
  relative viability: 0.303
Ruxolitinib + Bortezomib; first compound 0.8 µM
  relative viability: 0.325
Ruxolitinib + Bortezomib; first compound 2.53 µM
  relative viability: 0.284
Ruxolitinib + Bortezomib; first compound 8 µM
  relative viability: 0.285
VE-821 + Decitabine; first compound 0.08 µM
  relative viability: 1.13
VE-821 + Decitabine; first compound 0.253 µM
  relative viability: 0.974
VE-821 + Decitabine; first compound 0.8 µM
  relative viability: 0.809
VE-821 + Decitabine; first compound 2.53 µM
  relative viability: 0.903
VE-821 + Decitabine; first compound 8 µM
  relative viability: 0.989
VE-821 + Crizotinib; first compound 0.08 µM
  relative viability: 1.18
VE-821 + Crizotinib; first compound 0.253 µM
  relative viability: 1.1
VE-821 + Crizotinib; first compound 0.8 µM
  relative viability: 0.904
VE-821 + Crizotinib; first compound 2.53 µM
  relative viability: 0.777
VE-821 + Crizotinib; first compound 8 µM
  relative viability: 0.58
VE-821 + Linsitinib; first compound 0.08 µM
  relative viability: 0.819
VE-821 + Linsitinib; first compound 0.253 µM
  relative viability: 0.699
VE-821 + Linsitinib; first compound 0.8 µM
  relative viability: 0.567
VE-821 + Linsitinib; first compound 2.53 µM
  relative viability: 0.798
VE-821 + Linsitinib; first compound 8 µM
  relative viability: 0.423

## BEN
Ruxolitinib + Bortezomib; first compound 0.08 µM
  relative viability: 0.634
Ruxolitinib + Bortezomib; first compound 0.253 µM
  relative viability: 0.693
Ruxolitinib + Bortezomib; first compound 0.8 µM
  relative viability: 0.824
Ruxolitinib + Bortezomib; first compound 2.53 µM
  relative viability: 0.747
Ruxolitinib + Bortezomib; first compound 8 µM
  relative viability: 1.16
VE-821 + Decitabine; first compound 0.08 µM
  relative viability: 0.699
VE-821 + Decitabine; first compound 0.253 µM
  relative viability: 0.679
VE-821 + Decitabine; first compound 0.8 µM
  relative viability: 0.687
VE-821 + Decitabine; first compound 2.53 µM
  relative viability: 0.768
VE-821 + Decitabine; first compound 8 µM
  relative viability: 0.644
VE-821 + Crizotinib; first compound 0.08 µM
  relative viability: 0.952
VE-821 + Crizotinib; first compound 0.253 µM
  relative viability: 0.847
VE-821 + Crizotinib; first compound 0.8 µM
  relative viability: 0.688
VE-821 + Crizotinib; first compound 2.53 µM
  relative viability: 0.835
VE-821 + Crizotinib; first compound 8 µM
  relative viability: 0.796
VE-821 + Linsitinib; first compound 0.08 µM
  relative viability: 0.967
VE-821 + Linsitinib; first compound 0.253 µM
  relative viability: 0.871
VE-821 + Linsitinib; first compound 0.8 µM
  relative viability: 0.793
VE-821 + Linsitinib; first compound 2.53 µM
  relative viability: 0.911
VE-821 + Linsitinib; first compound 8 µM
  relative viability: 0.753

## CAL-12T
Ruxolitinib + Bortezomib; first compound 0.253 µM
  relative viability: 0.856
Ruxolitinib + Bortezomib; first compound 0.8 µM
  relative viability: 1.1
Ruxolitinib + Bortezomib; first compound 2.53 µM
  relative viability: 0.979
Ruxolitinib + Bortezomib; first compound 8 µM
  relative viability: 0.535
VE-821 + Crizotinib; first compound 0.08 µM
  relative viability: 0.798
VE-821 + Crizotinib; first compound 0.253 µM
  relative viability: 0.674
VE-821 + Crizotinib; first compound 0.8 µM
  relative viability: 0.537
VE-821 + Crizotinib; first compound 2.53 µM
  relative viability: 0.369
VE-821 + Crizotinib; first compound 8 µM
  relative viability: 0.316
VE-821 + Linsitinib; first compound 0.08 µM
  relative viability: 0.94
VE-821 + Linsitinib; first compound 0.253 µM
  relative viability: 0.805
VE-821 + Linsitinib; first compound 0.8 µM
  relative viability: 0.725
VE-821 + Linsitinib; first compound 2.53 µM
  relative viability: 0.891
VE-821 + Linsitinib; first compound 8 µM
  relative viability: 0.956

## COR-L23
Ruxolitinib + Bortezomib; first compound 0.08 µM
  relative viability: 1.16
Ruxolitinib + Bortezomib; first compound 0.253 µM
  relative viability: 1.03
Ruxolitinib + Bortezomib; first compound 0.8 µM
  relative viability: 1.06
Ruxolitinib + Bortezomib; first compound 2.53 µM
  relative viability: 0.9
Ruxolitinib + Bortezomib; first compound 8 µM
  relative viability: 0.758
VE-821 + Decitabine; first compound 0.08 µM
  relative viability: 0.538
VE-821 + Decitabine; first compound 0.253 µM
  relative viability: 0.459
VE-821 + Decitabine; first compound 0.8 µM
  relative viability: 0.599
VE-821 + Decitabine; first compound 2.53 µM
  relative viability: 0.58
VE-821 + Decitabine; first compound 8 µM
  relative viability: 0.468
VE-821 + Crizotinib; first compound 0.08 µM
  relative viability: 0.731
VE-821 + Crizotinib; first compound 0.253 µM
  relative viability: 0.76
VE-821 + Crizotinib; first compound 0.8 µM
  relative viability: 0.695
VE-821 + Crizotinib; first compound 2.53 µM
  relative viability: 0.726
VE-821 + Crizotinib; first compound 8 µM
  relative viability: 0.562
VE-821 + Linsitinib; first compound 0.08 µM
  relative viability: 0.958
VE-821 + Linsitinib; first compound 0.253 µM
  relative viability: 0.897
VE-821 + Linsitinib; first compound 0.8 µM
  relative viability: 1.16
VE-821 + Linsitinib; first compound 2.53 µM
  relative viability: 0.964
VE-821 + Linsitinib; first compound 8 µM
  relative viability: 0.719
